# Results taken from patent US6458593B1, “Immortalized cell lines and methods of making the same” (Vitro Diagnostics, Inc., priority 1999, dated 2002).
# No end group written: not given here.
# Experiments:
# Format in all cases: cell-based
# [1] = system: primary cultured human pituitary cells; test: Pituitary hormone secretion from primary cultures of panned human pituitary cells; design: key to Effect on LH secretion / Effect on PRL secretion / Effect on FSH secretion / Effect on GH secretion: NE: no effect detected; +: stimulatory; −: inhibitory; conditions: for Optimum condition (concentration) for GH secretion / Optimum condition (concentration) for PRL secretion / Optimum condition (concentration) for FSH secretion / Optimum condition (concentration) for LH secretion: Gc medium
# Procedure: Fetal human pituitary glands were obtained from Anatomical Gift Foundation (White Oak, Ga.) or Advanced Bioscience Resources, (Alameda, Calif.). Pituitary glands were stored in approximately 20 mls of RPMI culture media at 4° C. and processed within 24 hours of dissection. The gestational age ranged from 19 to 24 weeks. The following dispersion procedure was performed using sterile materials and technique throughout. Tissue was rinsed in 30 mls modified Kreb's Ringer solution, supplemented with 5 g/L bovine serum albumin (BSA) and nonessential amino acids. The tissue was then transferred to a glass microscope slide, and finely minced using scapels. Minced tissue was suspended in 2 to 2.25 mls modified Kreb's Ringer containing 1 mg/ml collagenase (Sigma Chemical Co., St. Louis, Mo.). The mixture was incubated at 37° C. with rotation at 250 rpm for 60 minutes. The dispersed cells were washed in 20 mls DMEM/F12 medium and centrifuged (5 minutes at 428×g). The supernatant was aspirated leaving 2-4 mls, and two additional washes were performed using 10 mls DMEM/F12. Cells were counted using a hemacytometer (Fresney, I R, 1987). The total number of cells ranged from 100,000 to 2 million per gland, with greater cell numbers in older pituitary glands. The mixture was centrifuged (5 minutes at 428×g). The pellet was then resuspended in culture media, as described below, at approximately 10^5 cells/ml and plated into multi-well, styrene tissue culture plates, incubated at 37° C. in humidified air supplemented with 5% CO2.
# Primary culture conditions necessary for the proliferation of endocrine cells of the pituitary gland were investigated. The present invention requires cellular proliferation of target cells for integration of foreign DNA into the host cell genome and induction of immortalization. The pituitary gland is composed of numerous cell types including fibroblasts, follicular stellate cells, endocrine epithelial cells (gonadotropes, thyrotropes, somatotropes, lactotropes, melanotropes, corticotropes) and endothelial cells from blood vessels. Since the hormone-producing endocrine cells are one target of the present invention, we investigated methods to enrich the population of endocrine cells. […] Primary cultures were panned by initially plating the dispersed pituicytes in a single 35 mm tissue culture dish at about 5×10^4 cells/ml. After 16-24 hours, less adherent cells were removed from these cultures by repetitive pipetting of media (approximately 10 times). These cells were pelleted by centrifugation (5 minutes at 428×g) and replated at 10^5 cells/ml.
# To monitor the viability and/or secretory capability of the hormone-producing endocrine cells, we measured secretion of pituitary hormones from cultures of panned pituitary cells. The level of FSH, LH, prolactin and TSH in culture media was determined using an automated chemiluminescent-based immunoanalyzer, ACS: 180™ (Chiron Diagnostics, Inc., Norwood, Mass.). Growth hormone was determined using an immunoradiometric assay (Nichols Institute, San Juan Capistrano, Calif.). Culture media was harvested on Mondays and Fridays from growing cultures for several weeks. These cultures were maintained in 48-well plates (Falcon/Becton Dickinson, Franklin Lakes, N.J.), with each well containing 1 ml of media. The majority of the media were carefully removed to avoid uptake of cells and transferred to 12×75 mm tubes for analysis. Cells were fed with an equal volume of fresh medium at the same time points. Background levels of GH in various media were insignificant (<0.1 ng/ml). Each condition was tested in duplicate and graphed values are the mean hormone concentration +/− standard deviation.
# Similar types of experiments were done to optimize cell culture conditions and components for secretion of GH, FSH, LH, and prolactin from primary cultured human pituitary cells. […]
# [2] = system: primary pituitary cultures; test: G418 selection: killing of non-transfected human pituitary cells
# Procedure: Dispersed and panned cells human pituitary cells were plated at 200,000 to 300,000 cells per ml in 6-well plates (Falcon/Becton Dickinson, Franklin Lakes, N.J.) and grown until 30-50% confluent. Transfection was performed using cationic lipids to deliver plasmids containing either the SV40 large T antigen or the v-myc oncogene into primary-cultured pituitary cells. Plasmids without oncogenes were used as controls for transfection. Wells transfected with control plasmid slightly outlived primary cell cultures due to the presence of the gene coding for G418 resistance but died after 2 to 3 weeks or a single passage of the cells. Using Lipfectin®, we transfected panned pituitary cells with either pSV3neo (Southern, P J and Berg, P J, 1982) or pLXSN-v-myc, constructed as described below. The concentration of DNA was kept constant (typically […]) in each well while the amount of cationic lipid increased from 0-20 μl. […] The formation of colonies in the presence of G418 was monitored for a varying number of weeks.
# Primary cultured human pituitary cells transfected with pSV3neo were incubated for an additional 48 to 60 hours in Gc medium with 10^−10 M estradiol and nonessential amino acids before G418 selection. […] Medium was replaced every 3 to 4 days and the formation of individual colonies was monitored visually. […]
# [3] = system: immortalized bovine pituitary cells; test: Bovine GH secretion into conditioned media (immunoblot); conditions: 10 μM, 3 hours in media without FBS, passage 2-10
# Procedure: Additional experiments were performed using highly sensitive immunological methods to detect bovine growth hormone within live, individual cells in the immortalized cultures. Bovine GH-specific monoclonal antibodies were obtained from Biogenesis, Inc. (Catalog No. 4750-0939) and OEM Concepts (Toms River, N.J.). […] A cellular blotting method was used to monitor bovine GH secretion from pituitary cells grown in culture, as described by Gibson-D'Ambrosio, et al. (1995). By localizing bovine GH within cultures, it was possible to obtain enriched cultures of bovine somatotropes prior to transfection with pSV3neo. […] These cell lines are indicated in Table 2 with the designation bGH, e.g., bGH C5.
# To test for secretion of bovine GH from immortalized bovine cell line, cultures of passage 2-10 were grown to confluence in FBS-containing media, washed three times with PBS and incubated for 3 hours in media without FBS. Duplicate wells contained 10 μM bovine growth hormone releasing factor (GHRF).
# [4] = primary human pituitary cultures
# [5] = initial treatment, in the presence of cortisone and estrogen
compound,measurement,setting,value
C[C@]12CC[C@@H]3c4ccc(O)cc4CC[C@H]3[C@@H]1CC[C@@H]2O [17β-Estradiol],Effect on GH secretion,"[1]; 10^−10 M in medium, previous experiments",stimulatory effect
same,Effect on FSH secretion,[1]; [4],NE
same,Effect on LH secretion,[1]; [4],NE
same,Optimum condition (concentration) for GH secretion,[1]; [4],100 pM
same,Optimum condition (concentration) for PRL secretion,[1]; [4],100 pM
CN[C@@H]1[C@@H](O)[C@@H](O[C@@H]2[C@@H](O)[C@H](O[C@H]3O[C@H]([C@@H](C)O)[C@@H](O)[C@H](O)[C@H]3N)[C@@H](N)C[C@H]2N)OC[C@]1(C)O [G418],Non-transfected cells killed,"[2]; 250 μg/ml, final dose",100%
same,Concentration sufficient to kill all primary pituitary cultures tested,[2]; human primary pituitary cultures,150 µg/mL
C[C@]12CCC(=O)C=C1CC[C@@H]1[C@@H]2[C@@H](O)C[C@@]2(C)[C@H]1CC[C@]2(O)C(=O)CO [Hydrocortisone],Effect on LH secretion,[1]; [4],NE
same,Effect on PRL secretion,[1]; [4],NE
same,Optimum condition (concentration) for FSH secretion,[1]; [4],5e-08 M
same,Optimum condition (concentration) for GH secretion,[1]; [4],50000 pM
"N[C@@H](Cc1cc(I)c(Oc2ccc(O)c(I)c2)c(I)c1)C(=O)O [T3, 3,5,3′ triiodothyronine]",Effect on TSH release,[1]; 10^−10 M,strongly inhibitory
same,Effect on secretion of GH,[1]; 10^−10 M,beneficial
same,Effect on secretion of LH,[1]; 10^−10 M,beneficial
same,Effect on secretion of prolactin,[1]; 10^−10 M,beneficial
same,Effect on FSH secretion,[1]; [4],NE
same,Optimum condition (concentration) for GH secretion,[1]; [4],100 pM
same,Optimum condition (concentration) for LH secretion,[1]; [4],1e-10 M
same,Optimum condition (concentration) for PRL secretion,[1]; [4],100 pM
"FGF-basic: basic fibroblast growth factor, growth factor addition to the medium",Effect on GH release,"[1]; 0.1 ng/ml, preliminary evidence",potentiates
same,Effect on FSH secretion,[1]; [4],NE
same,Effect on LH secretion,[1]; [4],NE
same,Effect on PRL secretion,[1]; [4],NE
same,Optimum condition (concentration) for GH secretion,[1]; [4],0.1 ng/mL
"GHRF: bovine growth hormone releasing factor (YADAIFTNSYRKVLGQLSARKLLQDIMNRQQGERNQEQGAKVRL; ends and bridges not checked; UniProt P63292 31-74, looked up)",Effect on amount of bovine GH secreted,[3],appeared to be potentiated
"GnRH: gonadotropin releasing hormone, a hypothalamic releasing hormone (QHWSYGLRPG; ends and bridges not checked; UniProt P01148 24-33, looked up)",Effect on FSH secretion,[1]; [5],significantly potentiated
same,Effect on LH secretion,[1]; [5],significantly potentiated
same,Effect on GH secretion,[1]; [4],NE
same,Effect on PRL secretion,[1]; [4],NE
same,Optimum condition (concentration) for FSH secretion,[1]; [4],10^−10 M
same,Optimum condition (concentration) for LH secretion,[1]; [4],10^−7 to 10^−10M
